Earlier results as cited in EP1694242B1, “PROCESS FOR MAKING PHARMACEUTICAL 7-(2-TRIMETHYLSILYLETHYL) CAMPTOTHECIN FORMULATIONS” (BIONUMERIK PHARMACEUTICALS, INC., priority 2003, dated 2005).

Details: fraction of the potency of the lactone form; background statement

## CC[C@@](O)(C(=O)O)c1cc2n(c(=O)c1CO)Cc1cc3ccccc3nc1-2 [carboxylate form of CPT]
  antitumor potency of the carboxylate form relative to the lactone form of CPT: one-tenth
